pIC50: −log10 of the molar value. Each block holds one molecule with its values, some of them ahead of it.
What was measured:
BT474 cells = assay: Drug screening, BT474 (RealTime-Glo MT); assay type: cell-based, human
Experimental: (§1) The following example describes experiments conducted to calculate IC50 values using a non-linear fit in Graphpad Prism by GraphPad Software Inc.
(§2) Cells grown in 2D were dosed starting after 24 h with either EHT-1864, AZD6482, Maritoclax, ZSTK474, Afatinib, TW-37, ABT-199, ABT-263 and Temsirolimus between 50 nM and up to 20 μM using an Hewlett-Packard (HP) D300 digital dispenser containing up to 0.2% DMSO then treated again 48 h following the first dose and ended after 72 h of treatment. Cells grown in 3D were dosed after 14 days with up to 0.2% DMSO every 48 h for 7 days. Cell viability was assessed by removing media and replacing it with 100 μL of sterile RealTime-Glo MT (Promega) which was diluted 1000× in media warmed to 37° C. After 1 h luminescence was detected using a Tecan microplate reader (Life Sciences) with 1 second integration time. Cell viability was calculated by subtracting background luminescence from all groups; treatment was compared to control wells, which received up to 0.2% DMSO. Data represents 3 independent replicates consisting of different cell passages for each condition to calculate the mean and standard deviation of cell viability.

MDA-MB-468 cells [1] = assay: Drug screening, MDA-MB-468 (PrestoBlue); assay type: cell-based; details: Homo sapiens, treated 7 days
Experimental: as §1
Cells were dosed with 0.1, 1, 5, 20 and 50 μM Erlotinib-HCl containing 0.27% DMSO every 48 h for 7 days. Cell viability was assessed by removing media and replacing it with 150 μL of sterile, PrestoBlue which was diluted 10× in media warmed to 37° C. After 2.5 hours fluorescence was detected using a Tecan microplate reader (Life Sciences) by exciting at 570 nm and detected at 590 nm. Cell viability was calculated by subtracting background fluorescence from all groups; treatment was compared to control wells, which received 0.27% DMSO. Data represents 3 independent replicates consisting of different cell passages for each condition to calculate the mean and standard deviation of cell viability.

[2] = tested on: tumor derived mammary luminal epithelial cells; assay: Drug screening with primary cells; assay type: cell-based; details: human patient tumour luminal B breast cancer cells
Experimental: as §2, with “dosed” for “dosed starting”, “Maritoclax” for “either EHT-1864, AZD6482, Maritoclax, ZSTK474, Afatinib, TW-37, ABT-199, ABT-263 and Temsirolimus”, “10” for “50”, “DMSO. IC50 values were calculated using a non-linear fit in Graphpad Prism by GraphPad Software Inc.” for “DMSO.”

MDA-MB-468 cells [3] = assay: RGDOA cell adhesion assay; assay type: cell-based, human; details: RGDOA 250-1000 μM conjugated to HA-oxime hydrogels for 1 hour
Experimental: RGDOA Cell Adhesion assay: […] After gelling for 2 h at 37° C., 25 μL of 125, 250, 500, and 1000 μM RGDOA solutions in media described above were added to hydrogels. After treatment with RGDOA solutions for 1 h at 37° C., the media was removed and gels were washed three times with media at 25 μL per well. MDA-MB-468 cells were seeded on the surface of the hydrogels at a density of 3000 cells well^−1 in 25 μL of media and incubated for 30 min. Media was gently removed by pipette and replaced with PBS cooled to 4° C. […] Cells nuclei were stained with Hoechst 33342, 1/250 in PBS, 25 μL well^−1 for 4 h. Images were obtained using an Olympus confocal microscope at 10× magnification with z-stacks of 12 μm step size. Cell number was quantified using spot identification in Imaris 8 software by Bitplane. The fold change in cell number was calculated from control hydrogels containing no RGDOA peptide. A minimum of 3 independent replicates consisting of different cell passages were performed for each condition.

Molecule: Cc1cc([C@@H](C)Nc2ccccc2C(=O)O)c2nc(N3CCOCC3)cc(=O)n2c1 [AZD6482]
responsiveness in HA-oxime versus Matrigel or 2D TCPS (BT474 cells; BT474 cells): more responsive

Molecule: O=c1cc(CN2CCOCC2)occ1OCCCCCSc1ccnc2cc(C(F)(F)F)ccc12 [EHT-1864]
responsiveness in HA-oxime versus Matrigel (BT474 cells; BT474 cells): more responsive

Molecule: FC(F)c1nc2ccccc2n1-c1nc(N2CCOCC2)nc(N2CCOCC2)n1 [ZSTK474]
cell response between HA-oxime, Matrigel and 2D TCPS (BT474 cells; BT474 cells): cell response did not always differ between the 3 culture conditions

pIC50 (MDA-MB-468 cells [1]; MDA-MB-468, MDA-MB-468 cultured in 3D (Matrigel, HA-oxime+/−Ln) 21 days): ~5.35 | pIC50 (MDA-MB-468 cells [1]; MDA-MB-468, MDA-MB-468 grown on 2D TCPS 21 days): 4.42
Molecule: C#Cc1cccc(Nc2ncnc3cc(OCCOC)c(OCCOC)cc23)c1 [erlotinib]

Molecule: O=C(c1ccccc1O)c1[nH]c(Cl)c(Cl)c1-n1c(C(=O)c2ccccc2O)cc(Cl)c1Cl [maritoclax]
sensitivity in 3D HA-oxime versus 2D TCPS [2]: significantly more sensitive | sensitivity in HA-oxime versus 2D TCPS (BT474 cells; BT474 cells): over tenfold more sensitive | pIC50 (BT474 cells; BT474 cells cultured in 2D TCPS): 5.26 | pIC50 (BT474 cells; BT474 cells cultured in HA-oxime): 6.23

Molecule: Acetyl-GRGDSPASSKK(OA)G [RGDOA]
number of adherent MDA-MB-468 cells (MDA-MB-468 cells [3]): increase in the number of adherent cells

Reference: patent US12605461B2, “Hydrogel compositions and uses thereof” (priority 2019, dated 2026)
